Tests used:
Prothrombin [1] = biological target: T1, Prothrombin (Homo sapiens, UniProt P00734); assay: Inhibition of human thrombin preincubated for 10 mins followed by Ac-FVR-AMC substrate addition measured within 10 mins by fluorescence assay
Prothrombin [2] = biological target: T1, Prothrombin; assay: Inhibition of human thrombin at 1 ug/ml preincubated for 10 mins followed by Ac-FVR-AMC substrate addition measured within 10 mins by fluorescence assay relative to control
Rattus norvegicus = assay: Anticoagulant activity in Sprague-Dawley rat assessed as inhibition of arteriovenous thrombosis at 0.5 mg/ml administered 3 days prior to testing measured on day 4 relative to control; type: functional

Structure (SMILES)	IC50 (Prothrombin [1]; read-out: IC50) [nM]	IC50 (Prothrombin [1]; read-out: pIC50 (converted)) [nM]	inhibition (Prothrombin [2]) [%]	inhibition (INH) (Rattus norvegicus) [%]
CCn1c(CNc2ccc(C(=N)N)cc2F)nc2cc(C(=O)N(CCC(=O)O)c3cccc(C)c3C)ccc21	4.92	4.9	93.2	–
CCn1c(CNc2ccc(C(=N)N)cc2F)nc2cc(C(=O)N(CCC(=O)O)c3ccc(F)c(F)c3)ccc21	9.17	9.12	93.8	–
CCn1c(CNc2ccc(C(=N)N)cc2F)nc2cc(C(=O)N(CCC(=O)O)c3ccc(C)cc3)ccc21	–	–	88.2	–
CCn1c(CNc2ccc(C(=N)N)cc2F)nc2cc(C(=O)N(CCC(=O)O)c3cc(F)cc(F)c3)ccc21	–	–	91.2	–
CCn1c(CNc2ccc(C(=N)N)cc2F)nc2cc(C(=O)N(CCC(=O)O)c3ccc(F)cc3F)ccc21	3.21	3.24	92.5	76.23
CCn1c(CNc2ccc(C(=N)N)cc2F)nc2cc(C(=O)N(CCC(=O)O)c3cccc(C)n3)ccc21	2.16	2.14	93.6	84.66
CCn1c(CNc2ccc(C(=N)N)cc2F)nc2cc(C(=O)N(CCC(=O)O)c3cc(C)ccn3)ccc21	3.69	3.72	92	–
Cn1c(CNc2ccc(C(=N)N)cc2)nc2cc(C(=O)N(CCC(=O)O)c3ccccn3)ccc21 [DABIGATRAN]	–	–	–	85.07

Now from value to compound, other results behind:

IC50 (Prothrombin [1]; read-out: IC50) [nM]	IC50 (Prothrombin [1]; read-out: pIC50 (converted)) [nM]	inhibition (Prothrombin [2]) [%]	Structure (SMILES)	inhibition (INH) (Rattus norvegicus) [%]
7.18	7.24	91.9	CCn1c(CNc2ccc(C(=N)N)cc2F)nc2cc(C(=O)N(CCC(=O)O)c3ccc(C)cc3C)ccc21	–
–	–	87.5	CCn1c(CNc2ccc(C(=N)N)cc2F)nc2cc(C(=O)N(CCC(=O)O)c3ccc(C)c(F)c3)ccc21	–
5.44	5.5	92.8	CCn1c(CNc2ccc(C(=N)N)cc2F)nc2cc(C(=O)N(CCC(=O)O)c3cccc(C)c3)ccc21	–
–	–	89	CCn1c(CNc2ccc(C(=N)N)cc2F)nc2cc(C(=O)N(CCC(=O)O)c3cc(C)cc(C)c3)ccc21	–
1.81	1.82	92.5	CCn1c(CNc2ccc(C(=N)N)cc2F)nc2cc(C(=O)N(CCC(=O)O)c3c(C)cccc3C)ccc21	–
10.1	–	91.6	CCn1c(CNc2ccc(C(=N)N)cc2F)nc2cc(C(=O)N(CCC(=O)O)c3ccc(C)c(C)c3)ccc21	–
4.18	4.17	92.5	CCn1c(CNc2ccc(C(=N)N)cc2F)nc2cc(C(=O)N(CCC(=O)O)c3ccc(F)c(C)c3)ccc21	–
5.66	5.62	93	CCn1c(CNc2ccc(C(=N)N)cc2F)nc2cc(C(=O)N(CCC(=O)O)c3cc(C)ccc3C)ccc21	–

— ChEMBL document CHEMBL3797073 (Bioorg Med Chem, 2016)
